Here are results for three compounds from US20210171577A1, “COMBINATORIAL ANTIBIOTIC DERIVATIVES BASED ON SUPRAMOLECULAR STRUCTURES” (priority 2017, published 2021).

Molecules are shown by their SMILES. Several values for one entry are separate records, joined by “and”; a condition that tells them apart may be missing. Equal entries are not always repeated. Marks after values point to notes of the source that are not given here.

For assay [1], the system named is multiresistant strains of microorganisms and fungi. Nature of the assay: Antimicrobial activity in vitro, collection of multiresistant test strains (summary statements). It counts as cell-based. The settings on record: resistant fungal strains.
Assay [2] has as its system Escherichia coli IMI2001. Description: Neutropenic peritonitis/sepsis model in mice, dose response (Example 5). It counts as in vivo, NMRI mice. The method, then: The objective of this study was to study the dose response relationship after intravenous (iv) administration of a single dose of SKPA (CBT) in the range of 0.1612 mg/kg. The effect was investigated against resistant E. coli IMI2001 in a neutropenic peritonitis model. Administration of meropenem at a dose of 40 mg/kg was included as a positive control group. The number of colonies in the blood and peritoneal fluid was determined 5 hours after administration. The mouse peritonitis/sepsis model is a well-known model for antimicrobial activity studies as described by N. FrimodtMoller and J. D.
30 female outbred NMRI mice, 2530 grams (Harlan Scandinavia).
Escherichia coli IMI2001 from IMINAMN, Kharkov, Ukraine. Clinical isolate from a human wound from 2003 with multidrug resistance (to ampicillin, ceftazidime, aztreonam, gentamicin, ciprofloxacin).
ASCA in Ringer's acetate, pH 6, 1.2 mg/ml, 6.0 ml. The solution was stored at 4° C. until use. The analyzes of the compositions used for administration were performed at the end of the phase of the study conducted on live animals, and the following results were obtained in these analyzes.
(§1) The introduction of cyclophosphamide to mice. Neutropenia was induced in mice by injection of 0.5 ml of cyclophosphamide solution intraperitoneally 4 days (200 mg/kg) and 1 day (100 mg/kg) before infection.
Infection of mice. Fresh E. coli IMI2001 colonies obtained overnight in an agar plate and 5% horse blood were suspended and diluted in sterile saline to approximately 2×10^6 CFU/ml. One hour before the start of administration (time point 1 h), mice were intraperitoneally infected with 0.5 ml of a suspension of E. coli in the lateral lower quadrant of the abdomen. Approximately 0.51 hours after the administration, 45 μl of neurofen (20 mg ibuprofen per ml, corresponding to 30 mg/kg) was orally administered to the mice as a painkiller.
The introduction of drugs to mice. Mice were given a single intravenous administration of CBT, meropenem, or excipient into the lateral tail vein for approximately 30 seconds in a volume of 10 ml/kg at time 0 h (see Table 1). The dose determination was based on an average body weight of 30 g. Mice with a body weight of 2832 g were injected with 0.30 ml of solution. Mice weighing 2728 g were injected with 0.25 ml of the solution and mice weighing 32.136 g were injected with 0.35 ml of the solution.
T indicates time relative to administration. The numbers in the columns of the sampling represent the identification numbers of mice. Clinical scoring of mice. Mice were observed during the study and assigned them scores from 0 to 5 depending on their behavior and clinical signs.
The number of colonies was determined in blood and peritoneal fluid for 0 and 5 hours. Mice were anesthetized with CO2+O2 and blood was taken from an axillary incision into Eppendorf tubes coated with ethylene diamine tetraacetic acid (EDTA). Mice were sacrificed immediately after blood sampling, and a total of 2 ml of sterile physiological saline was administered intraperitoneally and a gentle massage of the abdomen was performed until it was opened and the fluid samples were pipetted. Then, each sample was diluted 10 times in physiological saline and drops of 20 μl were applied to blue agar plates. All agar plates were incubated for 1822 hours at 35° C. in air.
Results. The number of colonies was determined at the beginning of administration and 5 hours after administration. Before the calculations, a log 10 transformation of the CFU count was performed.
Dose response curves (data not shown) were calculated in GraphPad Prism using a sigmoid dose response curve (variable angle). […] The maximum effect of CBT, Emax, was determined as the difference in log CFU in the absence of response and at the maximum response. The lack of response was characterized as the number of colonies at a level determined in mice that were injected with vehicle. […]

Assay [3] deals with Escherichia coli IMI2001. Description: Model of hip (femoral) infection with neutropenia in mice (Example 7). The class given is in vivo, NMRI mice. As for the experimental part:
Introduction The objective of this study was to study the dose response after intravenous (iv) administration of a single dose of CPR in the range of 0.1612 mg/kg. The effect was investigated against E. coli IMI2001 in a model of femoral infection with neutropenia. Administration of meropenem at a dose of 40 mg/kg was included as a positive control group. The number of colonies in the hips was determined 5 hours after administration. The hip infection model is a well-known model for studies of the antimicrobial effect and tissue penetration, as described by S. Gudmundsson & N. Erlensdottir: Handbook of Animal Models of Infection (1999), ed. by O. Zak & M. A. Sande, Academic Press, San Diego, US, and some other publications. See the review by D. Andes & C. Craig: Animal model pharmacokinetics and pharmacodynamics: a critical review. International Journal of Antimicrobial Agents, 19 (4): 261268.
Materials and methods. 40 female outbred mice NMRI, 2530 grams (Kiev, Ukraine). Escherichia coli IMI2001 from IMINAMN, Kharkov, Ukraine. Clinical isolate from a human wound from […] with multidrug resistance (to ampicillin, ceftazidime, aztreonam, gentamicin, ciprofloxacin).
PPC in Ringer's acetate, pH 6, 1.2 mg/ml, 6.0 ml. The solution was stored at 4° C. until use. The analyzes of the compositions used for administration were performed at the end of the phase of the study conducted on live animals, and the following results were obtained in these analyzes.
as §1
Infection of mice. […]
The number of colonies was determined in the hips at 0 and 5 h. […]
Results. The number of colonies was determined at the beginning of administration and 5 hours after administration. […] CFU/ml in the infectious material was determined to be 7.35 log 10, which corresponds to […]. […]

Assay [4] has as its system Escherichia coli IMI2001. Nature of the assay: Peritonitis/sepsis model in neutropenic NMRI mice, effect over time at 7.5 mg/kg (Example 6). The class given is in vivo. The method, then: The objective of this study was to investigate the effectiveness of CPR in vivo after intravenous (iv) administration of a single dose of 7.5 mg/kg. The effect was tested against Escherichia coli IMI2001 in a peritonitis model in neutropenia NMRI mice to avoid the use of mucin, which is commonly used in a mouse peritonitis model. Neutropenia was induced in mice by injection of cyclophosphamide. Administration of meropenem at a dose of 40 mg/kg was included as a positive control group and vehicle administration was included as a negative control group. The number of colonies in peritoneal fluid and blood was determined 2 and 5 hours after administration.
30 female outbred mice NMRI, 2832 grams (Kiev).
Escherichia coli IMI2001 from IMINAMN, Ukraine, Kharkov. Clinical isolate from a human wound from 2013 with multidrug resistance (to ampicillin, ceftazidime, aztreonam, gentamicin, ciprofloxacin).
PPC in Ringer's acetate, pH 6, 1.2 ml, 0.75 mg/ml.
as §1
Infection of mice. Fresh E. coli AID #172 colonies obtained overnight in an agar plate and 5% horse blood were suspended and diluted in sterile saline to approximately 2×10^6 CFU/ml. One hour before the start of administration (time point 1 h), mice were intraperitoneally infected with 0.5 ml of a suspension of E. coli in the lateral lower quadrant of the abdomen. 2.5 h after administration with significant clinical signs of infection, mice were orally administered 45 μl of neurofen (20 mg ibuprofen per ml, which corresponded to 30 mg/kg) as a painkiller.
Score mice. At each sampling in mice, a clinical assessment of the clinical signs of infection was performed.
The introduction of drugs to mice. The mice were given a single intravenous administration of CPR, meropenem, or excipient into the lateral tail vein for approximately 30 seconds at a time point of 0 h (see Table 6). The dose determination was based on an average body weight of 30 g. Mice with a body weight of 2832 g were injected with 0.30 ml of solution. Mice weighing 2728 g were injected with 0.25 ml of the solution and mice weighing 32.136 g were injected with 0.35 ml of the solution. Mice 17 accidentally injected 0.35 ml, despite the fact that its body weight was 29.5 g.
Fence samples. The number of colonies was determined in blood and peritoneal fluid at 0, 2 and 5 hours after administration according to Table 6.
Mice were anesthetized with CO2+O2 and blood sampling was performed from a section in the axillary region. The mice were sacrificed by cervical dislocation and a total of 2 ml of sterile physiological saline was injected intraperitoneally and a gentle massage of the abdomen was performed, then it was opened and a sample of the fluid was pipetted. Each sample was diluted 10 times in saline and drops of 20 μl were applied to plates with blood agar. All agar plates were incubated for 1822 hours at 35° C. in air.

Setting [5] is: Meropenem 40 mg/kg single iv, T = 5 h, individual mice.
Where [6] appears, read: Meropenem 40 mg/kg single iv, T = 5 h, p < 0.01 vs filler.
Setting [7] is: Meropenem 40 mg/kg single iv, individual mice, score 0-5.
[8] abbreviates: Meropenem 40 mg/kg single iv, 2 h.
Setting [9] is: Meropenem 40 mg/kg single iv, 5 h.
The mark [10] stands for this setting: Meropenem 40 mg/kg single iv, T = 2 h, individual mice.

Turning to `C[C@@H]1[C@H](O)[C@@H](C)/C=C/C=C/C=C/C=C/C=C/C=C/C=C/[C@H](O[C@@H]2O[C@H](C)[C@@H](O)[C@H](N)[C@@H]2O)C[C@@H]2O[C@](O)(C[C@@H](O)C[C@@H](O)[C@H](O)CC[C@@H](O)C[C@@H](O)CC(=O)O[C@H]1C)C[C@H](O)[C@H]2C(=O)O` [amphotericin], the antifungal activity entry in assay [1] is on record as “did not exert antifungal activity”.

With `C[C@@H]1[C@H](O)[C@@H](C)/C=C/C=C/CC/C=C/C=C/C=C/C=C/C(O[C@H]2O[C@H](C)[C@@H](O)[C@H](N)[C@@H]2O)CC2O[C@](O)(CC(O)C(O)CCC(O)CC(O)CC(O)CC(=O)O[C@H]1C)CC(O)C2C(=O)O` (stereo partly drawn) [nystatin], the antifungal activity result in assay [1] is “did not exert antifungal activity”.

Consider `C[C@@H](O)[C@H]1C(=O)N2C(C(=O)O)=C(S[C@@H]3CN[C@H](C(=O)N(C)C)C3)[C@H](C)[C@H]12` [Meropenem, meropenem], for which the “log10 CFU Blood” value in the assay on Escherichia coli IMI2001 [2] (setting [5]) is 2.48 log10 CFU and 1.70 log10 CFU and 2.95 log10 CFU; in the assay with Escherichia coli IMI2001 [4] (setting [10]) it was 3.60 log10 CFU and 3.57 log10 CFU and 4.11 log10 CFU; in the assay on Escherichia coli IMI2001 [4] (setting [5]) it was 3.20 log10 CFU and 2.85 log10 CFU and 3.26 log10 CFU. The “log10 CFU PF” value is 3.92 log10 CFU and 1.70 log10 CFU and 2.30 log10 CFU with Escherichia coli IMI2001 [2] (setting [5]); 4.12 log10 CFU and 3.40 log10 CFU and 4.24 log10 CFU with Escherichia coli IMI2001 [4] (setting [10]); 4.38 log10 CFU and 4.00 log10 CFU and 4.26 log10 CFU with Escherichia coli IMI2001 [4] (setting [5]). Also, the “log10 CFU Average in PF” value in the assay with Escherichia coli IMI2001 [2] (setting [6]) stood at 2.64 log10 CFU. Besides, in the assay on Escherichia coli IMI2001 [2] (Meropenem 40 mg/kg single iv, T = 5 h, p < 0.05 vs filler), the “log10 CFU Blood average” value is recorded as 2.38 log10 CFU. For the same compound, the “Clinical Score T = 5 h” value with Escherichia coli IMI2001 [2] (setting [7]) is 1 (2×) and 0. Also, in the assay on Escherichia coli IMI2001 [2] (meropenem 40 mg/kg iv, 5 h), the “CFU compared with excipient, blood (p<0.05) and peritoneal fluid (p<0.01)” value was “significant decrease”. The “log10 CFU, hip, The average” value in the assay on Escherichia coli IMI2001 [3] (Meropenem 40 mg/kg single iv, T = 5 h) was determined as 4.25 log10 CFU. Moreover, in the assay with Escherichia coli IMI2001 [3] (Meropenem 40 mg/kg single iv, T = 5 h, individual mice, smallest value of group excluded from average), the “log10 CFU, hip” value is 4.99 log10 CFU and 3.94 log10 CFU. Further, in the assay on Escherichia coli IMI2001 [3] (meropenem 40 mg/kg iv, 5 h), the “CFU compared with vehicle, hip” value was “definite but insignificant decrease”. Also, the “Difference in CFU level compared with filler, blood” value in the assay on Escherichia coli IMI2001 [4] (setting [8]) is recorded as “blood −0.82 log CFU/ml”; with Escherichia coli IMI2001 [4] (setting [9]), “blood −1.64 log CFU/ml”. In addition, the “Difference in CFU level compared with filler, peritoneum” value was 2 h: peritoneum −1.51 log CFU/ml in the assay with Escherichia coli IMI2001 [4] (setting [8]) and 5 h: peritoneum −1.51 log CFU/ml in the assay on Escherichia coli IMI2001 [4] (setting [9]). Also, the “log10 CFU Blood (group average)” value in the assay on Escherichia coli IMI2001 [4] (Meropenem 40 mg/kg single iv, T = 2 h) is 3.76 log10 CFU; in the assay on Escherichia coli IMI2001 [4] (setting [6]) it was 3.10** log10 CFU. In addition, the “log10 CFU PF (group average)” value with Escherichia coli IMI2001 [4] (Meropenem 40 mg/kg single iv, T = 2 h, p < 0.01 vs filler) was 3.92 ** log10 CFU; in the assay on Escherichia coli IMI2001 [4] (setting [6]), 4.21 ** log10 CFU. Further, in the assay with Escherichia coli IMI2001 [4] (setting [7]), the “Score T = 2 h” value was 1. The “Score T = 5 h” value in the assay with Escherichia coli IMI2001 [4] (setting [7]) is 0. The “significant decrease of CFU compared with filler group” value in the assay on Escherichia coli IMI2001 [4] (meropenem 40 mg/kg, 2 hours after administration) is “only in the peritoneal fluid”. Further, the “CFU compared with filler group, blood and peritoneal fluid” value in the assay with Escherichia coli IMI2001 [4] (meropenem 40 mg/kg, after 5 hours, p<0.01) is recorded as “significant decrease”.
